Data published in EPA's ToxValDB 9.5 (doi:10.2903/j.efsa.2015.4060).

Legend:
[1] = system: Apis mellifera; settings: acute, mortality
[2] = system: Canidae; settings: chronic; duration: 53 weeks; oral; Dog Other; organ weight
[3] = system: Colinus virginianus
[4] = system: Daphnia magna; settings: chronic/long-term; duration: 21 days; reproduction
[5] = system: Folsomia candida; settings: chronic/long-term; duration: 28 days
[6] = system: Hypoaspis aculeifer; settings: chronic/long-term; duration: 14 days
[7] = system: Lepomis macrochirus; settings: acute; duration: 96 hours; mortality
[8] = system: Oncorhynchus mykiss; settings: chronic/long-term; duration: 88 days; other
[9] = system: Rattus norvegicus
[10] = system: Tagia sp.

## Cc1ccc(C(C)NC(=O)[C@@H](NC(=O)OC(C)C)C(C)C)cc1 (stereo not given in full) [Iprovalicarb]
[1]; dermal
  LD50: > 200 µg/piece
[1]; oral, unspecified
  LD50: > 199 µg/piece
[2]
  LOAEL: 3 mg/kg-day
[3]; acute, oral
  LD50: > 2000 mg/kg-day
[3]; acute, oral, diet
  LC50: > 1350 mg/kg-day
[3]; reproduction developmental
  NOAEL: 161 mg/kg-day
[4]
  NOEC: 1.89 mg/L
[5]
  NOEC: ≥ 1000 mg/kg
[6]
  NOEC: ≥ 1000 mg/kg
[7]
  LC50: > 20.7 µg/mL
[8]
  NOEC: 5 mg/L
[9]; acute, oral, mortality
  LD50: > 5000 mg/kg-day
[9]; chronic
  NOAEL: 146 mg/kg-day
[10]; acute, duration: 14 days, mortality
  LC50: > 500 mg/kg
[10]; chronic/long-term, duration: 8 weeks
  NOEC: ≥ 64 mg/kg
